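Values below derive from 48-hour exposures of cells grown in 96-well plates, with endpoints linearly interpolated between the two concentrations bracketing the appropriate inhibition level. TGI: total growth inhibition.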
Tested on: ACHN renal
Assay: NCI-60 cell line screen, 48 h

Compared with `C=CCN1C[C@H](C)N([C@H](c2ccc(C(=O)N(CC)CCO)cc2)c2cccc(OC)c2)C[C@H]1C`, `CC(=O)OC1CC2c3cccc4c3C(CC2N(C)C1=O)CN4C(=O)c1ccccc1` (centres undefined) is lower in TGI: greater than 100 µM for the first, 55.5 µM for the second.

`CCC1c2[nH]c3ccccc3c2C[C@H]2C(=O)NC(COC(C)(C)C)C(=O)N12` (some centres undefined) and `CCOC(=O)CC1CCN(C(=O)c2ccccc2)C2Cc3c([nH]c4ccccc34)C12C[N+](=O)[O-]` (centres undefined) cannot be ordered by TGI: greater than 100 µM for the first, greater than 100 µM for the second.

Going from `CC12CCC(C(=O)OC1=O)C2(C)C` (centres undefined) to `CC1(C#N)CC(C)(C)C(/C=C2/CC(C)(C)C(/C=C3/OC(=N)CC3(C)C)=N2)=N1` (centres undefined), the TGI falls from greater than 100 µM to 58.9 µM.

First: CN1CCOC1(C)CO (centres undefined)
Second: CCOC(=O)C1(C(=O)OCC)CN(CC)CN(c2ccccc2)C1
The TGI of the first is higher: greater than 100 µM for the first, 35.8 µM for the second.

Compared with `CC1=CC(C2/C(=N/O)C=C(C)CC2(C)C)C(O)C(C)(C)C1` (centres undefined), `COc1ccc2c3c1O[C@H]1C(O)CCC4(O)[C@@H](C2)NCC[C@]314` (some centres undefined) is higher in TGI: 34 µM for the first, greater than 100 µM for the second.

Compared with `c1cc(-c2ncc(-c3ccc4c(c3)CCCO4)o2)ccn1`, `CCOC(=O)CC1c2ccc(O)cc2OC(=O)C1c1ccc([N+](=O)[O-])cc1` (centres undefined) is lower in TGI: greater than 100 µM for the first, 71.7 µM for the second.

`COC(=O)C1=C(C)NC(C)=C(C(=O)OC)C1c1ccc(/[N+]([O-])=C/c2ccccc2)cc1` and `Cc1cc(C)cc(C(=N)c2ccccc2Cc2cccc3ccccc23)c1` are within 1.5-fold of each other in TGI: 32.7 µM for the first, 31.2 µM for the second.

First: CCCCCC(C[N+]1(C)CCOCC1)C(=O)/C=C/c1ccccc1 (centres undefined)
Second: COc1ccc(C[N+]23C(CC[C@H]2c2ccccc2)CC[C@H]3c2ccccc2)cc1 (some centres undefined)
The TGI of the first is lower: 60.8 µM for the first, greater than 100 µM for the second.

Tested on: HCC-2998 colon
Assay: NCI-60 cell line screen, 48 h

Compared with `CSC1=C(SC)SC(=C2SC3=C(SC(=C4SCCS4)S3)S2)S1`, `CC1=C(Br)C(Br)=C(C)S1=O` is lower in TGI: greater than 100 µM for the first, 34.9 µM for the second.

`CCN(CC)c1ccc2cc(-c3nnc(-c4ccccc4)o3)c(=O)oc2c1` and `CC(=O)Oc1ccccc1-c1cc2ccccc2oc1=O` cannot be ordered by TGI: greater than 46.3 µM for the first, greater than 100 µM for the second.

Compared with `CC(=O)c1sc2c(c1OC(=O)c1cccs1)c(=O)n(-c1ccccc1)c(=S)n2-c1ccccc1`, `CC(=O)OC1CC2c3cccc4c3C(CC2N(C)C1=O)CN4C(=O)c1ccccc1` (centres undefined) is lower in TGI: greater than 100 µM for the first, 43.5 µM for the second.

Going from `C[C@]12CCC(=O)C=C1CC[C@@H]1C2CC[C@]2(C)c3nn(-c4ccc(F)cc4)nc3CC12` (some centres undefined) to `CO[C@H]1[C@@H](O)[C@@H](C)O[C@@H](O[C@H]2CC[C@@]3(C)[C@H](CC[C@@H]4[C@@H]3CC[C@]3(C)[C@@H](C5=CC(=O)OC5)[C@@H](OC(C)=O)C[C@]43O)C2)[C@@H]1O`, the TGI falls from greater than 100 µM to 0.824 µM.

`CN(C)C(=O)NCCN1CCCCCc2ccccc21` and `O=C(C(=O)N1CCc2ccccc21)c1c[nH]c2ccccc12` cannot be ordered by TGI: greater than 100 µM for the first, greater than 10 µM for the second.

Going from `CN(Nc1cc(=O)[nH]c(=O)[nH]1)c1ccccc1` to `COc1ccnc2c1C(=O)c1nc3ccccc3c3ccnc-2c13`, the TGI falls from greater than 100 µM to 1.52 µM.

Compared with `CCOC(=O)C1=C(Nc2cccc(OC)c2)OCC1=O`, `CCOC(=O)CC1c2ccc(O)cc2OC(=O)C1c1ccc([N+](=O)[O-])cc1` (centres undefined) is lower in TGI: greater than 100 µM for the first, 60.6 µM for the second.

`O=C(NCCCNC(=O)c1ccc2c(O)c(O)ccc2c1)c1ccc2c(O)c(O)ccc2c1` and `Cn1ccc(C(=O)NCCOCCNC(=O)c2ccn(C)c(=O)c2O)c(O)c1=O` cannot be ordered by TGI: greater than 100 µM for the first, greater than 100 µM for the second.

`N#CSc1nc[nH]c1C(N)=O` and `COC(=O)C1=C(C)NC(C)=C(C(=O)OC)C1c1ccc(/[N+]([O-])=C/c2ccccc2)cc1` cannot be ordered by TGI: greater than 100 µM for the first, greater than 100 µM for the second.

First: CC(=O)N(C(=O)CC(=O)N/N=C\c1ccc(Br)c(N(CCC#N)CCC#N)c1)c1ccc(Cl)cc1
Second: CCOC(=O)C1(C(=O)OCC)CN(CC)CN(c2ccccc2)C1
The TGI of the first is higher: greater than 100 µM for the first, 28.9 µM for the second.

First: CC12CCC(C(=O)OC1=O)C2(C)C (centres undefined)
Second: CC1(C#N)CC(C)(C)C(/C=C2/CC(C)(C)C(/C=C3/OC(=N)CC3(C)C)=N2)=N1 (centres undefined)
The TGI of the first is higher: greater than 100 µM for the first, 93.3 µM for the second.

`CC1=CC(C2/C(=N/O)C=C(C)CC2(C)C)C(O)C(C)(C)C1` (centres undefined) and `CCCCCC(C[N+]1(C)CCOCC1)C(=O)/C=C/c1ccccc1` (centres undefined) are within 1.5-fold of each other in TGI: 30 µM for the first, 33.7 µM for the second.

Tested on: HCT-116 colon
Assay: NCI-60 cell line screen, 48 h

`CSC1=C(SC)SC(=C2SC3=C(SC(=C4SCCS4)S3)S2)S1` and `CCOC(=O)C1=C(Nc2cccc(OC)c2)OCC1=O` cannot be ordered by TGI: greater than 100 µM for the first, greater than 100 µM for the second.

`CCN(CC)c1ccc2cc(-c3nnc(-c4ccccc4)o3)c(=O)oc2c1` and `CC(=O)Oc1ccccc1-c1cc2ccccc2oc1=O` cannot be ordered by TGI: greater than 100 µM for the first, greater than 100 µM for the second.

`CC1=C(C(N)=O)C(c2ccncc2)C(C#N)=C2SCC(=O)N12` (centres undefined) and `O=C(C(=O)N1CCc2ccccc21)c1c[nH]c2ccccc12` cannot be ordered by TGI: greater than 100 µM for the first, greater than 10 µM for the second.

Compared with `CC(=O)c1sc2c(c1OC(=O)c1cccs1)c(=O)n(-c1ccccc1)c(=S)n2-c1ccccc1`, `Clc1ccc(Cl)c(Nc2ccnc(SCc3ccccc3)n2)c1` is higher in TGI: 36.6 µM for the first, greater than 100 µM for the second.

Compared with `C[C@]12CCC(=O)C=C1CC[C@@H]1C2CC[C@]2(C)c3nn(-c4ccc(F)cc4)nc3CC12` (some centres undefined), `CO[C@H]1[C@@H](O)[C@@H](C)O[C@@H](O[C@H]2CC[C@@]3(C)[C@H](CC[C@@H]4[C@@H]3CC[C@]3(C)[C@@H](C5=CC(=O)OC5)[C@@H](OC(C)=O)C[C@]43O)C2)[C@@H]1O` is lower in TGI: greater than 100 µM for the first, 0.109 µM for the second.

`CN(C)C(=O)NCCN1CCCCCc2ccccc21` and `CN(Nc1cc(=O)[nH]c(=O)[nH]1)c1ccccc1` cannot be ordered by TGI: greater than 100 µM for the first, greater than 100 µM for the second.

Compared with `O=C(NCCCNC(=O)c1ccc2c(O)c(O)ccc2c1)c1ccc2c(O)c(O)ccc2c1`, `O=C1/C(=C\c2ccc([N+](=O)[O-])o2)SC2N=C(COc3ccc(Cl)cc3)NN12` (centres undefined) is lower in TGI: greater than 94.4 µM for the first, 14.5 µM for the second.
